Source: patent US20070060595A1, “Novel fused heterocyclic compound and use thereof” (priority 2003, published 2007)

Molecular target: recombinant human JNK (JNK1, JNK2)
Test: JNK inhibitory activity, enzyme assay (phosphorylation of biotinylated ATF2, Alpha Screen detection)
Format: biochemical
Settings: JNK isoform not stated
Procedure: 5 μL of kinase buffer (25 mM Tris-HCl (pH 7.5), 5 mM β-glycerophosphoric acid, 2 mM dithiothreitol, 0.1 mM Na3VO4, 10 mM MgCl2) including recombinant human JNK (JNK1: Upstate Biotechnology #14-327, JNK2: Upstate Biotechnology #14-329) was added to well of 384-well plate for fluorescence assay (5 μL) (JNK1: 20 μU/well, JNK2: 50 μU/well). Then, kinase buffer including the compound of the present invention was added into it to carry out incubation for 20 minutes at room temperature. Subsequently, substrate mixture prepared with kinase buffer [biotinylated ATF2 (5 μg/mL) (Upstate Biotechnology #14-432), adenosine triphosphate (JNK1 activity measurement: 2 μmol/L, JNK2 activity measurement: 5 μmol/L) (Cell Signaling Technology #9804), anti-phosphorylated ATF2 antibody (20-fold dilution) (Cell Signaling Technology #9221L)] was added to carry out enzyme reaction for 30 minutes at 30° C. […] The amount of complex between phosphorylated ATF2 and anti-phosphorylated ATF2 was measured with Alpha Screen™ Rabbit Detection Kit (Packard #6760607).
JNK inhibitory activity which is the effect of the compound of the present invention was calculated as inhibition ratio (%) by the following equation: Inhibition ratio(%)=[(AC−AX)/(Ac−AB)]×100
AB: measured value without enzyme;
AC: measured value with enzyme and without a test compound;
AX: measured value with enzyme and a test compound

IC50	Structure (SMILES)
330 nM	Clc1cc(NCc2ccc3c(c2)OCO3)n2nccc2n1 [Example 1(1), N-(1,3-benzodioxol-5-ylmethyl)-5-chloropyrazolo[1,5-a]pyrimidin-7-amine]
740 nM	COc1cc(CNc2cc(-c3ccsc3)nc3ccnn23)cc(OC)c1OC [Example 3, 5-thien-3-yl-N-(3,4,5-trimethoxybenzyl)pyrazolo[1,5-a]pyrimidin-7-amine]
